Experimental findings from PubChem BioAssay (NCI) are described below.

Test systems include CAKI-1 renal; CCRF-CEM leukemia; COLO 205 colon; HL-60(TB) leukemia; OVCAR-3 ovarian; PC-3 prostate; SK-MEL-2 melanoma; SW-620 colon; A498 renal; NCI-H23 lung.
Holding throughout (assay): DTP human tumour cell line panel, 48 h

“And” between values parts separate entries of the source, which are not always exact repeats. Equal values may be shown once.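 96-well plates; 48 h exposure; 5 concentrations. Endpoints by linear interpolation between flanking doses. Not reached: highest tested concentration assigned. Here, GI50 denotes the concentration required for 50% inhibition of growth. TGI marks complete inhibition of growth.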

For the molecule `Cc1nc(N)sc1N=Nc1cc(Cl)c([N+](=O)[O-])cc1Cl`, the total growth inhibition concentration (TGI) with CAKI-1 renal is 68.5 µM; with CCRF-CEM leukemia, 35 µM; in the test with COLO 205 colon, over 100 µM; in the test on HL-60(TB) leukemia, 57.7 µM; in the test on OVCAR-3 ovarian, 40 µM; in the test on PC-3 prostate it was 53.3 µM. Also, the TGI in the test with SK-MEL-2 melanoma was found to be 60 µM; in the test on SW-620 colon, 35.8 µM.

Consider `COc1cc2c3c(n(CCCCNC(=O)OCC4c5ccccc5-c5ccccc54)c(=O)c2cc1OC)-c1cc2c(cc1C3=O)OCO2`, for which the GI50 with A498 renal was over 100 µM; in the test with CAKI-1 renal, 5.3 µM; with CCRF-CEM leukemia it was 2.75 µM; in the test with COLO 205 colon, 49.9 µM; in the test with NCI-H23 lung, 26.4 µM; in the test with OVCAR-3 ovarian, 19.8 µM. Further, the figures for the GI50 with PC-3 prostate, in the test with SK-MEL-2 melanoma and in the test on SW-620 colon were 13.7 µM, 70.4 µM and 7.75 µM, respectively. Besides, the TGI is over 100 µM in the test on A498 renal; over 100 µM in the test on CAKI-1 renal; over 100 µM with CCRF-CEM leukemia; over 100 µM in the test on COLO 205 colon; over 100 µM in the test on NCI-H23 lung; 62.5 µM in the test with OVCAR-3 ovarian. Further, the TGI in the test on PC-3 prostate was 55.6 µM; in the test with SK-MEL-2 melanoma it was over 100 µM; in the test with SW-620 colon, over 100 µM.

Regarding `Cc1[nH]n(-c2ccc(S(=O)(=O)O)cc2)c(=O)c1N=Nc1ccccc1`, the TGI in the test on A498 renal, in the test on CAKI-1 renal, in the test with COLO 205 colon, in the test with NCI-H23 lung, in the test with OVCAR-3 ovarian and in the test with PC-3 prostate was over 100 µM in each case. Moreover, the TGI in the test with SK-MEL-2 melanoma and with SW-620 colon was over 100 µM throughout.

Turning to `CO/N=C(\COc1ccc2c(c1)oc(=O)c1cc(OC)ccc12)c1cccc(OC)c1`, the GI50 in the test on A498 renal was 80.2 µM; with CAKI-1 renal, over 100 µM; in the test on CCRF-CEM leukemia, over 100 µM; with COLO 205 colon it was over 100 µM; in the test with NCI-H23 lung, over 100 µM; with OVCAR-3 ovarian, over 100 µM. For the same molecule, the GI50 in the test with PC-3 prostate, in the test on SK-MEL-2 melanoma and in the test with SW-620 colon was over 100 µM in each case. The total growth inhibition concentration (TGI) in the test on A498 renal, with CAKI-1 renal, in the test with CCRF-CEM leukemia, with COLO 205 colon, in the test on NCI-H23 lung and in the test with OVCAR-3 ovarian was over 100 µM throughout. Moreover, the TGI in the test on PC-3 prostate, in the test on SK-MEL-2 melanoma and with SW-620 colon was over 100 µM in each case.

Regarding `CC(=O)c1c(O)ccc2c(C)c(C(=O)O)oc12`, the GI50 in the test with A498 renal, in the test with CAKI-1 renal, in the test on CCRF-CEM leukemia, in the test on COLO 205 colon, in the test on NCI-H23 lung and in the test on OVCAR-3 ovarian was over 100 µM throughout. For the same molecule, the GI50 in the test with PC-3 prostate and with SW-620 colon was over 100 µM in each case. For the same molecule, the total growth inhibition concentration (TGI) in the test with A498 renal, in the test on CAKI-1 renal, in the test on CCRF-CEM leukemia, with COLO 205 colon, in the test with NCI-H23 lung and with OVCAR-3 ovarian was over 100 µM throughout. Besides, the TGI with PC-3 prostate and in the test with SW-620 colon was over 100 µM in each case.

On to `COc1ccc2cc3[n+](cc2c1OC)CCc1cc2c(cc1-3)OCO2`, for which the TGI in the test with A498 renal was over 307 µM; in the test with CAKI-1 renal, > 100 µM and 210 µM; in the test on COLO 205 colon, 33.3 µM [middle of 5 runs]; in the test with PC-3 prostate, over 100 µM; in the test with SW-620 colon, > 100 µM and > 73.8 µM and 170 µM. In addition, the GI50 in the test with CAKI-1 renal is > 100 µM and 16.8 µM and 65 µM; in the test on CCRF-CEM leukemia, 9.29 µM; in the test on COLO 205 colon, 7.46 µM [middle of 5 runs]; in the test with NCI-H23 lung, 6.34 µM; in the test on PC-3 prostate, 6.61 µM; in the test with SK-MEL-2 melanoma, 11.4 µM and 17.5 µM. Besides, the GI50 with SW-620 colon was 14.8 µM and 25.2 µM.

Regarding `CO/N=C(\COc1ccc2c(c1)oc(=O)c1cc(OC)ccc12)c1ccc(F)cc1`, the GI50 in the test on A498 renal is 22.3 µM; in the test with CAKI-1 renal it was 19.1 µM; with CCRF-CEM leukemia it was 47.5 µM; with COLO 205 colon it was 59.6 µM; in the test on NCI-H23 lung, 37.6 µM; with OVCAR-3 ovarian it was 16.7 µM. Besides, the figures for the GI50 with PC-3 prostate, in the test with SK-MEL-2 melanoma and in the test with SW-620 colon were 20.9 µM, 23.1 µM and 34.8 µM, respectively. The TGI was 93.5 µM with A498 renal; 55 µM in the test on CAKI-1 renal; over 100 µM in the test with CCRF-CEM leukemia; over 100 µM with COLO 205 colon; over 100 µM in the test with NCI-H23 lung; 34.2 µM with OVCAR-3 ovarian. In addition, the concentration for total growth inhibition (TGI) with PC-3 prostate was 66.5 µM; with SK-MEL-2 melanoma, 72.8 µM; in the test with SW-620 colon, over 100 µM.

Turning to `COC(=O)c1oc2c(O)c(OC)c(Br)cc2c1C`, the GI50 was 32.7 µM with A498 renal; 43.4 µM with CAKI-1 renal; 25 µM in the test with CCRF-CEM leukemia; 22.5 µM in the test on COLO 205 colon; 23.6 µM with OVCAR-3 ovarian; 21.2 µM with PC-3 prostate. For the same molecule, the GI50 is 56.2 µM in the test on SK-MEL-2 melanoma and 30.5 µM with SW-620 colon. Also, the TGI was 65.8 µM in the test with A498 renal; over 100 µM with CAKI-1 renal; 67.6 µM in the test with CCRF-CEM leukemia; 48.3 µM in the test with COLO 205 colon; 43.5 µM in the test with OVCAR-3 ovarian; 39.7 µM in the test with PC-3 prostate. The TGI in the test on SK-MEL-2 melanoma is over 100 µM; with SW-620 colon, 82.5 µM.

In general, TGI refers to the concentration giving total growth inhibition. Low values mean greater sensitivity of the cells, high ones lower sensitivity of the cells. The GI50 is the concentration giving 50% growth inhibition.
